In article PMC8881501, “Identification of SARS-CoV-2 inhibitors targeting Mpro and PLpro using in-cell-protease assay” (Communications Biology, 2022):
“And” between values parts separate entries of the source, which are not always exact repeats. Identical values can stand only once. Counter-ions that a name gives are not always drawn. Like-named read-outs stand apart in the source and are kept apart here.

Columns and labels:
[1] = tested on: HEK293T cells; experiment: Cell viability (alamarBlue) on HEK293T cells; conditions: replicate data
[2] = target: T1, SARS-CoV-2 Mpro (Severe acute respiratory syndrome coronavirus 2, UniProt P0DTC1); experiment: In-cell protease (ICP) assay, Mpro construct in HEK293T cells; assay type: cell-based; conditions: for remaining activity at 1 µM / remaining activity at 10 µM: HEK-293T; for remaining activity at 1 µM: read-out: mEmerald-NLS nuclear/total fluorescence (protease activity) normalized to untreated cells, 1 μM, HEK293T, Fig 2A replicate data, untreated control = 100; for remaining activity at 10 µM: read-out: mEmerald-NLS nuclear/total fluorescence (protease activity) normalized to untreated cells, 10 μM, HEK293T, Fig 2A replicate data, untreated control = 100
[3] = target: T1, SARS-CoV-2 Mpro; experiment: biochemical; conditions: for inhibition of Mpro protease activity: FRET assay
Method: A cleavage site is indicated by an asterisk. […] N = 3, values are represented as mean ± SE.
For the determination of half-maximal inhibitory concentrations (IC50) of MG-101 and GC376 (BPS Bioscience), a synthetic substrate of Mpro containing FRET pair and Mpro nsp4/5 cleavage site (indicated by an arrow, Dabcyl-KTSAVLQ ↓ SGFRKME-Edans) (BPS Bioscience) was used for the FRET-based cleavage assay. The assay was performed in 96-well, black, flat-bottomed microtiter plates (Greiner Bio-One, Germany) with a final volume of 50 μl. Mpro (a final concentration of 200 nM) was pre-incubated for 1 h at 22 °C with compounds at different concentrations in the assay buffer (20 mM HEPES (pH 7), 0.5 mM EDTA, 1 mM dithiothreitol, 5% glycerol). The substrate was then added at a final concentration of 10 μM to the reaction mixture and the reaction was incubated for 4 h at 22 °C. The readings for the different concentrations of the inhibitor compounds incubated with the substrate without Mpro were measured as a blank. The fluorescence signals (excitation/emission, 360 nm/460 nm) of released EDANS were measured using Infinite 200 PRO multimode plate reader (Tecan, USA). The results were plotted as dose inhibition curves using nonlinear regression with a variable slope to determine the IC50 values of inhibitor compounds using GraphPad Prism 9.0.

[4] = tested on: SARS-CoV-2; assay type: cell-based; conditions: Huh-7.5, MOI 0.1, 24 h.p.i., anti-N IFA
[5] = Cytotoxicity assay (alamarBlue) on Huh-7.5 cells; conditions: human, CC50, Huh-7.5 cells, alamarBlue reduction
[6] = tested on: SARS-CoV-2; conditions: Vero E6 cells; cited from earlier work
[7] = tested on: SARS-CoV-2; experiment: microbe, parasite or virus in culture; assay type: cell-based
[8] = in vitro; conditions: human
[9] = tested on: SARS-CoV-2; experiment: qRT-PCR of viral RNA molecules in infected Huh-7.5 cells; assay type: cell-based; conditions: Huh-7.5, 24 h.p.i.
Method: We tested the effect of selected compounds in inhibiting the spread of SARS-CoV-2 on cell monolayers was tested by immunofluorescence assay (IFA) (Fig. 5a). From the percentage of inhibition (Fig. 5b), we calculated that the PLpro inhibitors Sitagliptin and Daclastavir inhibited virus spread by 75% and 70%, respectively, compared to untreated controls (Fig. 5b). […] We next determined whether the reduction in virus spread in the inhibitor-treated cells correlates with virus replication. We extracted total RNA from infected cells treated with inhibitors and quantified the number of viral RNA molecules by quantitative real-time polymerase chain reaction (qRT-PCR) (Fig. 5c). […] However, the reduction in the number of viral RNA molecules was lower for BMS-707035 (1-log reduction), Atazanavir (0.5-log), and Lomibuvir (0.5-log).
Fig. 5 Effect of compounds selected from ICP assay on SARS-CoV-2 replication. a Huh-7.5 cells positive for SARS-CoV-2 determined by immunofluorescence assay. Huh-7.5 cells pre-treated for 24 h with inhibitors were infected with SARS-CoV-2 at an MOI of 0.1. At 24 h.p.i., cells were fixed with paraformaldehyde and probed with anti-N (SARS CoV-2 nucleocapsid) primary antibody and FITC-conjugated goat anti-rabbit secondary antibody (green, infected cells). Nuclei were stained with Hoechst stain and confocal images were acquired. b The ratio of infected to uninfected cells for each treatment was calculated using Nikon Elements software and normalized to untreated controls (n = 5). c Quantification of SARS-CoV-2 RNA molecules from infected cells treated with inhibitors as indicated (n = 3).
Huh-7.5 cells grown in DMEM in 6 well tissue culture plates were pre-treated with different concentrations of compounds for 24 h were infected with 0.1 MOI of SARS-CoV-2. After 1 h of infection, virus-containing media were replaced with fresh media-containing compounds, and the plates were incubated at 37 °C. Untreated cells were included in the experiment as controls. After 24 h, total RNA was extracted from the cells using a Zymopure Quick-RNA extraction kit. The number of viral RNA molecules in the extracted total RNA samples was determined by quantitative RT-PCR on a QuantStudio-3 machine (Applied BioSystems) using primers –Forward […] and Reverse […]. The Ct values obtained were used to calculate the number of RNA molecules using a standard curve of Ct versus RNA molecules.

[10] = target: T2, SARS-CoV-2 PLpro (Severe acute respiratory syndrome coronavirus 2, UniProt P0DTC1); experiment: In vitro PLpro protease inhibition assay (Z-RLRGG-AMC); assay type: biochemical
[11] = tested on: Mpro; conditions: read-out: IC50, reported value; cited from earlier work
[12] = tested on: SARS-CoV-2; experiment: Time of addition (pre-treatment) experiment in Huh-7.5 cells, plaque assay; assay type: cell-based; conditions: Huh-7.5, pretreatment
[13] = tested on: SARS-CoV; conditions: Vero E6 cells; cited from earlier work
[14] = tested on: Huh-7.5 cells; experiment: Cytotoxicity assay (alamarBlue) on Huh-7.5 cells; conditions: Huh-7.5 cells, alamarBlue reduction
[15] = target: T2, SARS-CoV-2 PLpro; experiment: cell-based; conditions: HEK-293T, read-out: mEmerald-NLS nuclear/total fluorescence (protease activity) normalized to untreated cells, 10 μM, HEK293T, Fig 2A replicate data, untreated control = 100
[16] = tested on: COVID-19; design: method as in PMID 32994187; conditions: cited from earlier work
[17] = Severe acute respiratory syndrome coronavirus 2, Huh7.5, Huh-7.5 cells, MOI 0.1, 24 h.p.i., plaque assay

Structure (SMILES): C=C[C@@H]1C[C@]1(NC(=O)[C@@H]1C[C@@H](Oc2ncc(OC)c3ccc(Cl)cc23)CN1C(=O)[C@@H](NC(=O)OC(C)(C)C)C(C)(C)C)C(=O)NS(=O)(=O)C1CC1 [Asunaprevir]
- % normalised alamar Blue reduction at 10μM [1]: 78% and 88% and 90%
- remaining activity at 1 µM [2]: 88%
- remaining activity at 10 µM [2]: 69%

Structure (SMILES): COC(=O)N[C@H](C(=O)N[C@@H](Cc1ccccc1)[C@@H](O)CN(Cc1ccc(-c2ccccn2)cc1)NC(=O)[C@@H](NC(=O)OC)C(C)(C)C)C(C)(C)C [Atazanavir]
- inhibition of Mpro protease activity [3]: not found to be effectively inhibiting the Mpro protease activity
- inhibition of virus spread compared to untreated controls [4]: below 50%
- CC50 at 24 h [5]: 77.2 µM
- EC50 [6]: 0.5 ± 0.08 µM
- EC50 [7, 17]: 0.06 µM
- % normalised alamar Blue reduction at 10μM ([1]; listed as Atazanavir sulfate): 89% and 95.2% and 90.5%
- remaining activity at 1 µM [2]: 89%
- remaining activity at 10 µM [2]: 50%

Structure (SMILES): Cn1c(N2CCCCS2(=O)=O)nc(C(=O)NCc2ccc(F)cc2)c(O)c1=O [BMS-707035]
- inhibition of Mpro protease activity [3]: not found to be effectively inhibiting the Mpro protease activity
- inhibition of virus spread compared to untreated controls [4]: 81%
- CC50 at 24 h ([8]; CC50): 42.2 µM
- EC50 ([7]; Severe acute respiratory syndrome coronavirus 2, Huh7.5, Huh-7.5 cells): 0.27 µM
- remaining activity at 1 µM [2]: 79%
- remaining activity at 10 µM [2]: 60%

Structure (SMILES): CC(C)(C)NC(=O)N[C@H](C(=O)N1C[C@H]2[C@@H]([C@H]1C(=O)NC(CC1CCC1)C(=O)C(N)=O)C2(C)C)C(C)(C)C (stereo partly shown) [Bocoprevir]
- remaining activity at 1 µM [2]: 71%
- remaining activity at 10 µM [2]: 69%

Structure (SMILES): COC(=O)N[C@H](C(=O)N1CCC[C@H]1c1nc(-c2ccc(-c3ccc(-c4c[nH]c([C@@H]5CCCN5C(=O)[C@@H](NC(=O)OC)C(C)C)n4)cc3)cc2)c[nH]1)C(C)C [Daclastavir HCl]
- reduction in the number of viral RNA molecules compared to untreated cells [9]: 2 log
- IC50 [10]: 1.84 ± 0.256 µM
- inhibition of virus spread compared to untreated controls [4]: 70%
- CC50 at 24 h [5]: 32.1 µM
- EC50 [7, 17]: 1.59 µM
- % normalised alamar Blue reduction at 10μM ([1]; listed as Daclatasvir dihydrochloride): 89% and 80% and 96%

Structure (SMILES): COC(=O)N[C@H](C(=O)N1CCC[C@H]1c1nc(-c2ccc(-c3ccc(-c4c[nH]c([C@@H]5CCCN5C(=O)[C@@H](NC(=O)OC)C(C)C)n4)cc3)cc2)c[nH]1)C(C)C [Daclatasvir (BMS-790052)]
- % normalised alamar Blue reduction at 10μM [1]: 80% and 88% and 75%

Structure (SMILES): CC(C)CN(C[C@@H](O)[C@H](Cc1ccccc1)NC(=O)O[C@H]1CO[C@H]2OCC[C@H]21)S(=O)(=O)c1ccc(N)cc1 [Darunavir]
- % normalised alamar Blue reduction at 10μM [1]: 80% and 97% and 79%

Structure (SMILES): CC(C)C[C@H](NC(=O)OCc1ccccc1)C(=O)N[C@@H](CC1CCNC1=O)C(O)S(=O)(=O)O (stereo partly shown) [GC376]
- IC50 [3]: 0.13 ± 0.07 µM
- IC50 [11]: 0.19 µM

Structure (SMILES): COc1cc(O)c(CC=C(C)C)c2c1C(=O)CC(c1ccc(O)cc1)O2 (stereo not shown) [Isoxanthohumol]
- remaining activity at 1 µM [2]: 90%
- remaining activity at 10 µM [2]: 60%

Structure (SMILES): CC(C)(C)C#Cc1cc(N(C(=O)[C@H]2CC[C@H](C)CC2)[C@H]2CC[C@H](O)CC2)c(C(=O)O)s1 [Lomibuvir]
- inhibition of Mpro protease activity [3]: not found to be effectively inhibiting the Mpro protease activity
- inhibition of virus spread compared to untreated controls [4]: below 50%
- CC50 at 24 h ([8]; CC50): 48 µM
- EC50 [7, 17]: 0.07 µM
- remaining activity at 1 µM [2]: 90%
- remaining activity at 10 µM [2]: 44%

Structure (SMILES): Cc1cccc(C)c1OCC(=O)N[C@@H](Cc1ccccc1)[C@@H](O)C[C@H](Cc1ccccc1)NC(=O)[C@H](C(C)C)N1CCCNC1=O [Lopinavir]
- remaining activity at 1 µM [2]: 80%
- remaining activity at 10 µM [2]: 65%

Structure (SMILES): O[C@H]1[C@H]2c3cc4c(cc3CN3CCC(=C[C@@H]1O)[C@H]23)OCO4 [Lycorine HCl]
- effect of pre-treatment on virus production / entry [12]: only minimal effect on virus production
- inhibition of Mpro protease activity [3]: not found to be effectively inhibiting the Mpro protease activity
- EC50 [13]: 0.016 µM
- inhibition of virus spread compared to untreated controls [4]: 88%
- CC50 [14]: 19 µM
- CC50 at 24 h [5]: 18.8 µM
- EC50 [6]: 0.3 µM
- Selectivity index SI = CC50/EC50 ([7]; Huh-7.5 cells): 1878
- EC50 ([7]; Severe acute respiratory syndrome coronavirus 2, Huh7.5, 24 h): 0.01 µM
- % normalised alamar Blue reduction at 10μM ([1]; listed as Lycorine hydrochloride): 76% and 65% and 69.32%
- remaining activity at 1 µM [2]: 43%
- remaining activity at 10 µM [2]: 25%

Structure (SMILES): Cc1c(O)cccc1C(=O)N[C@@H](CSc1ccccc1)[C@H](O)CN1C[C@H]2CCCC[C@H]2C[C@H]1C(=O)NC(C)(C)C [Nelfinavir mesylate]
- reduction in the number of viral RNA molecules compared to untreated cells [9]: approximately 3 log
- reduction in the number of viral RNA molecules compared to untreated cells ([9]; listed as Nelfinavir): 3 log
- effect of pre-treatment on virus production / entry [12]: only minimal effect on virus production
- inhibition of Mpro protease activity [3]: not found to be effectively inhibiting the Mpro protease activity
- inhibition of virus spread compared to untreated controls [4]: 95%
- CC50 [14]: 26 µM
- CC50 at 24 h [5]: 25.9 µM
- virus titer at 24 h.p.i., Fig S2B data ([7]; 1 µM final concentration (each), Huh-7.5, replicates): 80000 and 64000 and 88000
- EC50 [7, 17]: 0.07 µM
- % normalised alamar Blue reduction at 10μM [1]: 88% and 75.67% and 90%
- remaining activity at 1 µM [2]: 60%
- remaining activity at 10 µM [2]: 45%

Structure (SMILES): N[C@@H](CC(=O)N1CCn2c(nnc2C(F)(F)F)C1)Cc1cc(F)c(F)cc1F [Sitagliptin]
- reduction in the number of viral RNA molecules compared to untreated cells [9]: 2 log
- IC50 ([10]; PLpro 300 nM, Z-RLRGG-AMC 25 μM, read-out: IC50): 1.14 ± 0.19 µM
- inhibition of virus spread compared to untreated controls [4]: 75%
- remaining activity at 10 µM [15]: 56%
- mortality rate (deceased patients) ([16]; added to standard care, vs. 37% with standard of care): 18%
- improved clinical outcomes (improved patients) ([16]; vs. 38% with standard of care): 60%
- hospital discharges (discharged patients) ([16]; vs. 89 with standard of care): 120
- CC50 [14]: 22 µM
- CC50 at 24 h ([8]; CC50, Huh-7.5 cells, alamarBlue reduction): 21.6 µM
- Selectivity index SI = CC50/EC50 [7]: 67
- EC50 [7, 17]: 0.32 µM
- virus titer at 24 h.p.i., Fig 6A data ([7]; single drug 1 μM, Huh 7.5, replicates): 56000 and 64000 and 40000
- effect on Mpro activity in cells ([2]; ICP assay): does not inhibit Mpro activity
